Reference: patent US11369583B2, “Long-acting prodrugs of rasagiline, preparing methods and uses thereof” (GUANGZHOU HENOVCOM BIOSCIENCE CO. LTD, priority 2017, dated 2022)
In brackets after ≈: the same amount, converted by molar mass. Read-outs that look alike come from different tables or passages of the source.

Experiments:
[1] = Solubility of prodrug compounds of Rasagiline in phosphate buffer pH 7.4; format: physicochemical
Description: A melting point and solubility (phosphate buffer with pH of 7.4) of synthesized prodrug compounds of Rasagiline were detected, and the results are shown in table 1: […]

[2] = Pharmacokinetics experiment: Rasagiline in blood plasma after intramuscular injection of prodrug suspensions into beagles; format: in vivo; details: beagle, intramuscular injectable suspension
Description: One common male beagle was used for each group, and they were forbidden to eat for 12 hours before administering drugs, and drank water freely meanwhile. Injectable suspensions of Example 13, Example 15, Example 14, Example 20, Example 8 were intramuscularly injected in a dosage of 0.47 mg/kg Rasagiline (1.72 mg/kg, 1.56 mg/kg, 1.64 mg/kg, 1.80 mg/kg, 1.16 mg/kg of prodrug respectively after conversion).
Treatment of blood plasma sample: The blood plasma sample was placed in an ice bath; 30 μL of methanol and 20 μL of interior label (2 μg/mL apigenin dissolved in 50% methanol) were added into 200 μL of the blood plasma sample and mixed through vortex, and then 4 mL of ethyl acetate was added and mixed through vortex. After being centrifuged at 9000 g for 2 minutes, an organic phase was separated and dried in vacuum, and then 150 μL of methanol was added for re-dissolution. 30 μL of a prepared sample was taken for analyzing.
Data analysis: The sample was detected by LC-MS/MS, and analyzed by a DAS 2.0 software to calculate pharmacokinetic parameters according to blood drug concentration, providing parameters such as AUC (0-t), AUC(0-∞), MRT(0-t), MRT(0-∞), Cmax, Tmax, and t1/2, etc.

[3] = biological target: Monoamine oxidase (MAO-B) (Homo sapiens, UniProt P27338); details: monoamine oxidase inhibitor; stronger than Selegiline; cited from earlier work
[4] = pH 7.4, aqueous buffer, phosphate buffer with pH of 7.4, read-out: SOLUBILITY

Monoamine oxidase (MAO-B), sequence (P27338 whole entry, species assumed): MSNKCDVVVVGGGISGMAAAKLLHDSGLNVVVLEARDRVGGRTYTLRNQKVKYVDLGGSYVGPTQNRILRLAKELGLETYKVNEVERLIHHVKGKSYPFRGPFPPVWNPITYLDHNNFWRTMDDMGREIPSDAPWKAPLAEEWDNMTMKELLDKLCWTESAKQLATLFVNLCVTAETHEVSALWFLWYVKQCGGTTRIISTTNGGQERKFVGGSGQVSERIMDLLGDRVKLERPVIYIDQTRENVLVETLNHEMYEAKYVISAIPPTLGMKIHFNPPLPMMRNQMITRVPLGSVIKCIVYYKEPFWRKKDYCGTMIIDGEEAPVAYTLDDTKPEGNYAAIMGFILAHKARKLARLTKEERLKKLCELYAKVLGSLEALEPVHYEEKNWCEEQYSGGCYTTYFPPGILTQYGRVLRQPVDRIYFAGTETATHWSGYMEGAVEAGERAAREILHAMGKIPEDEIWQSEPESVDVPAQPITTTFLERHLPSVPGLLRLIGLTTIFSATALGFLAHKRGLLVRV

Molecule	solubility [1, 4]	melting point	further results
C#CCN(C(=O)OCOC(=O)C(C)(C)C)[C@@H]1CCc2ccccc21 [Example 4, methyl ((Rasagiline-N-formyl)oxy)-pivalate]	< 5 µg/mL	< 25 °C	
C#CCN(C(=O)OCOC(=O)CCCCCCCCCCCCCCCCCCC)[C@@H]1CCc2ccccc21 [Example 5, methyl ((Rasagiline-N-formyl)oxy)-icosanoate]	< 5 µg/mL	< 25 °C	
C#CCN(C(=O)OCOC(=O)CC[C@@H](C)C1CCC2C3C[C@H](O)[C@@H]4C[C@H](O)CC[C@]4(C)C3CC[C@@]21C)[C@@H]1CCc2ccccc21 (some centres unmarked) [Example 6, methyl ((Rasagiline-N-formyl)oxy)-hyodeoxycholate]		< 50 °C	solubility ([1]; pH 7.4, aqueous buffer): < 5 µg/mL
C#CCN(C(=O)OCOC(=O)/C=C/c1ccc(O)c(OC)c1)[C@@H]1CCc2ccccc21 [Example 8, methyl ((Rasagiline-N-formyl)oxy)-ferulate]	< 5 µg/mL	130.4 to 133.8 °C	
C#CCN(C(=O)OCOC(=O)CC[C@@H](C)C1CCC2C3C(CC[C@@]21C)[C@@]1(C)CC[C@@H](O)C[C@H]1C[C@H]3O)[C@@H]1CCc2ccccc21 (some centres unmarked) [Example 9, methyl ((Rasagiline-N-formyl)oxy)-chenodeoxycholate]		< 50 °C	solubility ([1]; pH 7.4, aqueous buffer): < 5 µg/mL
C#CCN(C(=O)OCOC(=O)CC[C@@H](C)C1CCC2C3C(CC[C@@]21C)[C@@]1(C)CC[C@@H](O)C[C@H]1C[C@@H]3O)[C@@H]1CCc2ccccc21 (some centres unmarked) [Example 10, methyl ((Rasagiline-N-formyl)oxy)-ursodesoxycholate]		< 50 °C	solubility ([1]; pH 7.4, aqueous buffer): < 5 µg/mL
C#CCN(C(=O)OCOC(=O)CC[C@@H](C)C1CCC2C3CC[C@@H]4C[C@H](O)CC[C@]4(C)C3C[C@H](O)[C@@]21C)[C@@H]1CCc2ccccc21 (some centres unmarked) [Example 11, methyl ((Rasagiline-N-formyl)oxy)-deoxycholate]		< 50 °C	solubility ([1]; pH 7.4, aqueous buffer): < 5 µg/mL
C#CCN(C(=O)OCOC(=O)CCCNC(=O)CCCCCCCCCCCCCCCCC)[C@@H]1CCc2ccccc21 [Example 14, methyl ((Rasagiline-N-formyl)oxy)-stearamidobutanoate]	< 5 µg/mL	76 to 78 °C	
C#CCN(C(=O)OCOC(=O)CCCCNC(=O)CCCCCCCCCCCCCCC)[C@@H]1CCc2ccccc21 [Example 21, methyl ((Rasagiline-N-formyl)oxy)5-palmitamidopentanoate]	< 5 µg/mL	58.3 to 58.9 °C	
C#CCN[C@@H]1CCc2ccccc21 [Rasagiline]			inhibiting effect compared to Selegiline [3]: 5-10 times
methyl ((Rasagiline-N-formyl)oxy)4-stearamidohexanoate [Example 18]			solubility ([1]; pH 7.4): <5 µg/mL

More lines, main results first:

solubility [1, 4]	melting point	Molecule	further results
< 5 µg/mL	< 25 °C	C#CCN(C(=O)OCOC(=O)CCCCCCCCCCCCCCC)[C@@H]1CCc2ccccc21 [Example 1, methyl ((Rasagiline-N-formyl)oxy)-palmitate]	
< 5 µg/mL	66 to 70 °C	C#CCN(C(=O)OCOC(=O)Cc1cccc2ccccc12)[C@@H]1CCc2ccccc21 [Example 2, methyl ((Rasagiline-N-formyl)oxy)-naphthalene acetate]	
< 5 µg/mL	< 25 °C	C#CCN(C(=O)OCOC(=O)CCCCCCCCCCCCCCCCC)[C@@H]1CCc2ccccc21 [Example 3, methyl ((Rasagiline-N-formyl)oxy)-stearate]	
31.7 µg/mL (≈ 67.2 µM)		C#CCN(C(=O)OCOC(=O)CCCC[C@@H]1SC[C@@H]2NC(=O)N[C@@H]21)[C@@H]1CCc2ccccc21 [Example 7, methyl ((Rasagiline-N-formyl)oxy)-biotin methyl ester]	
< 5 µg/mL	77.2 to 80.8 °C	C#CCN(C(=O)OCOC(=O)CCCCCNC(=O)CCCCCCCCCCCCCCCCCCC)[C@@H]1CCc2ccccc21 [Example 12, methyl ((Rasagiline-N-formyl)oxy)-icosanamidohexanoate]	
< 5 µg/mL	80 to 82 °C	C#CCN(C(=O)OCOC(=O)CCCNC(=O)CCCCCCCCCCCCCCCCCCC)[C@@H]1CCc2ccccc21 [Example 13, methyl ((Rasagiline-N-formyl)oxy)-icosanamidobutanoate]	release of the prodrug and conversion into Rasagiline (in words) [2]: steadier
< 5 µg/mL	73 to 75 °C	C#CCN(C(=O)OCOC(=O)CCCNC(=O)CCCCCCCCCCCCCCC)[C@@H]1CCc2ccccc21 [Example 15, methyl ((Rasagiline-N-formyl)oxy)-palmitamidobutanoate]	
< 5 µg/mL	56.1 to 59.4 °C	C#CCN(C(=O)OCOC(=O)CCCNC(=O)CCCCCCCCCCC)[C@@H]1CCc2ccccc21 [Example 16, methyl ((Rasagiline-N-formyl)oxy)4-dodecanamidobutanoate]	
< 5 µg/mL	66.3 to 71.8 °C	C#CCN(C(=O)OCOC(=O)CCCNC(=O)CCCCCCCCCCCCC)[C@@H]1CCc2ccccc21 [Example 17, methyl ((Rasagiline-N-formyl)oxy)4-tetradecanamidobutanorate]	
< 5 µg/mL	55.4 to 56.2 °C	C#CCN(C(=O)OCOC(=O)CCCNC(=O)CCCCCCCCCCCCCCCCCCCCC)[C@@H]1CCc2ccccc21 [Example 20, methyl ((Rasagiline-N-formyl)oxy)4-docosanamidobutanoate]	release of the prodrug and conversion into Rasagiline (in words) [2]: steadier
< 5 µg/mL	75.3 to 77.1 °C	C#CCN(C(=O)OCOC(=O)CCCCNC(=O)CCCCCCCCCCCCCCCCC)[C@@H]1CCc2ccccc21 [Example 22, methyl ((Rasagiline-N-formyl)oxy)5-stearamidopentanoate]	
< 5 µg/mL		C#CCN(C(=O)OCOC(=O)CCC(=O)NCCCCCCCCCCCCCCCCCC)[C@@H]1CCc2ccccc21 [Example 23, methyl ((Rasagiline-N-formyl)oxy)4-octadecylamidosuccinate]	
